Assay results from patent US5489609A (Zaidan Hoijn Seisan Kaihatsu Kagaku Kenkyusho, priority 1992, dated 1996).

Columns and labels:
[1] = test system: Hepatopathy in mice (carbon tetrachloride); assay: Anti-hepatitis test: hepatopathy in mice (carbon tetrachloride); format: in vivo, ddy strain male mice; details: for ALT, mean ± S.D. / AST, mean ± S.D.: 200 mg/kg orally 3 h after carbon tetrachloride, blood 24 h after carbon tetrachloride, * p < 0.05; for suppressory activity (hepatopathy in mice): 200 mg/kg orally, in words
Experimental: A group of 8 ddy strain male mice (weighing about 30 g) kept fasting from the previous day was treated by intraperitoneal injection of 0.5% carbon tetrachloride in olive oil at a dose of 0.6 ml and thereafter allowed free access to food. Three hours after the administration of carbon tetrachloride, the test compound suspended in powdered gum arabic was given to the animals orally at a dose of 200 mg/kg, and blood samples were drawn from the mice under anesthesia with ether through the abdominal descending aorta 24 hours after the administration of carbon tetrachloride. The collected blood was centrifuged at a rate of 3,000 rpm for 15 min, followed by measurement of the activities of aspartate transaminase (AST) and alanine transaminase (ALT) by means of the Lippie method.

[2] = test system: isolated liver cells of rats; assay: Disorder of isolated liver cells (carbon tetrachloride vapor; ALT and AST leached out); format: cell-based; details: for ALT, mean ± S.D. / AST, mean ± S.D.: 37° C., 30 min, * p < 0.05
Experimental: Isolated liver cells of rats were prepared by means of the Segren's collagenase irrigation method, whereby a liver cell suspension was prepared to a concentration of […]. Into 2 ml of the suspension placed in an Erlenmeyer flask was put a test tube of about 0.5 ml capacity containing a 25% carbon tetrachloride solution in olive oil to saturate the reaction system with carbon tetrachloride vapor, and after the flask was tightly stoppered, preincubation was carried out at 37° C. for 30 min. One ml of a solution of the test compound in Hunk's solution was added to the suspension of liver cells, while 1 ml of Hunk's solution was added to a control. After the reaction was allowed to proceed at 37° C. for 30 min, a specifically determined volume of the reaction solution was pipetted out and immediately centrifuged under 500 g for 30 seconds, and ALT and AST leached out into the supernatant liquid were determined for activity by the Lippie method.

acetaldehyde toxicity = assay: Protective activity against acetaldehyde toxicity (death rate within 24 hours); format: in vivo, Rats; details: for Death rate / No. of dead animals (n/10): 30 min before acetaldehyde 1,200 mg/kg, 24 h
Experimental: Rats kept fasting with a supply of drinking water were weighed and divided into groups in such a manner that the mean body weight was uniform among the groups, with each group consisting of 10 heads. The rats were given acetaldehyde orally at a dose of 1,200 mg/kg, and the death rate within 24 hours was determined, wherein the test drug substances were administered orally 30 min before the application of acetaldehyde, with the vehicle (0.5% aqueous sodium carboxymethylcellulose) alone being given to a control group.

[3] = test system: Stomach injury with hydrochloric acid/ethanol; assay: Anti-ulcer test: stomach injury with hydrochloric acid/ethanol; format: in vivo, male rats of KBL Wistar strain
Experimental: The rats were divided into groups each consisting of 8 heads in such a way that their mean body weights were nearly uniform among the groups, treated by oral administration of hydrochloric acid/ethanol (0.15 mole hydrochloric acid solution in 80% ethanol) at a dose of 5 ml/kg body weight and sacrificed through cervical vertebrae dislocation 1 hour after administration. The stomachs were removed and treated with formalin, and individual ulcers formed in the glandular portion of the stomach were measured in length (mm), with the measured ulcer lengths summed for each rat. The test compound was suspended in a 0.5% aqueous solution of sodium carboxymethylcellulose, and the suspension was given to the test group orally at a dose of 10 ml/kg body weight 30 min before administration of hydrochloric acid/ethanol, whereas the vehicle (0.5% aqueous sodium carboxymethyl-cellulose) alone was applied to a control group.

[4] = test system: Stomach injury through water-immersion constraint stress; assay: Anti-ulcer test: stomach injury through water-immersion constraint stress; format: in vivo, male rats of KBL Wistar strain
Experimental: The rats were divided into groups each consisting of 8 heads in such a way that their mean body weights were nearly uniform among the groups, stress-loaded by soaking the animals placed in a stress cage of Univ. of Tokyo type in a water tank at 23° C. up to the xiphoid and then sacrificed through cervical vertebrae dislocation 7.5 hours later. The stomachs were removed and treated with formalin, and individual ulcers formed in the glandular portion of the stomach were measured in length (mm), with the measured ulcer lengths being summed for each rat. The test compound, suspended in a 0.5% aqueous solution of sodium carboxymethylcellulose, was given to the test group orally at a dose of 10 ml/kg body weight 30 min before the water-soaking constraint, whereas the vehicle alone was applied to a control group.

[5] = test system: Rats of KBL Wistar strain; assay: Acute toxicity test; format: in vivo; details: 7 day period
Experimental: Rats of KBL Wistar strain (weighing about […]), divided into groups each consisting of 3 heads, were treated through oral administration of the test compound suspended in powder gum arabic, followed by observation for any abnormalities over a 7 day period to find the number of dead animals.

[6] = Pharmacological tests (general statement on anti-hepatitis, liver function and anti-ulcer activity); format: in vivo; details: in words
[7] = conc. of test soln. 0.0125 mg/dl
[8] = conc. of test soln. 0.025 mg/dl
[9] = 50 mg/kg orally, vs Vehicle No. 1

For `N[C@@H](CCC(=O)N[C@@H](CS)C(=O)NCC(=O)O)C(=O)O` [Glutathione], the “ALT, mean ± S.D.” value [1] was 12030.2 ± 1204.5 IU, the “AST, mean ± S.D.” value [1] was 11423.3 ± 1960.8 IU and the “suppressory activity (hepatopathy in mice)” value [1] was “none of 2-aminoethanesulfonic acid, glutathione and glycyrrhizin that were used as controls at the same dose developed suppressory activity”.

With `CC1(C)[C@@H](O[C@H]2O[C@H](C(=O)O)[C@@H](O)[C@H](O)[C@H]2O[C@@H]2O[C@H](C(=O)O)[C@@H](O)[C@H](O)[C@H]2O)CC[C@]2(C)[C@H]3C(=O)C=C4[C@@H]5C[C@@](C)(C(=O)O)CC[C@]5(C)CC[C@@]4(C)[C@]3(C)CC[C@@H]12` [Glycyrrhizin] the “ALT, mean ± S.D.” value [1] was 13362.1 ± 1753.1 IU, the “AST, mean ± S.D.” value [1] was 12367.6 ± 1102.1 IU and the “suppressory activity (hepatopathy in mice)” value [1] was “none of 2-aminoethanesulfonic acid, glutathione and glycyrrhizin that were used as controls at the same dose developed suppressory activity”.

For `NCCS(=O)(=O)[O-].NCCS(=O)(=O)[O-].[Zn+2]` [TTZ, Bis(2-aminoethanesulfonic acid)zinc], the “ALT, mean ± S.D.” value [1] was 8899.4 ± 927.9 IU, the “AST, mean ± S.D.” value [1] was 7256.9 ± 1464.7 IU and the “suppressory activity (hepatopathy in mice)” value [1] was “significant suppressory activity equal to that of FTZ”. The “ALT, mean ± S.D.” value [2, 7] was 944.7 ± 61.7 IU, the “AST, mean ± S.D.” value [2, 7] was 327.9 ± 36.6 IU and the “ALT, mean ± S.D.” value [2, 8] was 637.2 ± 93.7 IU. The “AST, mean ± S.D.” value [2, 8] was 125.7 ± 48.2 IU, the “ALT, mean ± S.D.” value ([2]; conc. of test soln. 0.05 mg/dl) was 649.1 ± 42.4 IU and the “AST, mean ± S.D.” value ([2]; conc. of test soln. 0.05 mg/dl) was 68.2 ± 7.5 IU. The “ALT, mean ± S.D.” value ([2]; conc. of test soln. 0.1 mg/dl) was 525.1 ± 26.0 IU, the “AST, mean ± S.D.” value ([2]; conc. of test soln. 0.1 mg/dl) was 44.3 ± 11.1 IU and the “suppressory activity (isolated liver cells)” value ([2]; in words) was “suppressory activity equal to that of FTZ but clearly superior to that of 2-aminoethanesulfonic acid alone”. For the same compound, the Death rate (acetaldehyde toxicity; 150 mg/kg orally) was 30%, the “No. of dead animals (n/10)” value (acetaldehyde toxicity; 150 mg/kg orally) was 3/10 and the Death rate (acetaldehyde toxicity; 300 mg/kg orally) was 0%. The “No. of dead animals (n/10)” value (acetaldehyde toxicity; 300 mg/kg orally) was 0/10, the “protective activity against the lethal toxicity of acetaldehyde” value (acetaldehyde toxicity; in words) was “distinct protective activity against the lethal toxicity of acetaldehyde at lower doses than FTZ, which activity was shown to be more potent than that of 2-aminoethanesulfonic acid” and the Incidence of ulcer ([3]; 12.5 mg/kg orally) was 8/8. For the same compound, the “Ulcer coefficient (mm) mean ± S.E.” value ([3]; 12.5 mg/kg orally) was 32.2 ± 4.9 mm, the Suppression % ([3]; 12.5 mg/kg orally, vs Vehicle No. 3) was 11.8% and the Incidence of ulcer ([3]; 25 mg/kg orally) was 8/8. The “Ulcer coefficient (mm) mean ± S.E.” value ([3]; 25 mg/kg orally) was 24.6 ± 8.8 mm, the Suppression % ([3]; 25 mg/kg orally, vs Vehicle No. 2) was 63.3% and the Incidence of ulcer ([3]; 50 mg/kg orally) was 5/8. For the same compound, the “Ulcer coefficient (mm) mean ± S.E.” value ([3]; 50 mg/kg orally, * P < 0.01) was 2.2 ± 1.1 mm, the Suppression % [3, 9] was 96.3% and the “suppressory activity in the antiulcer test” value ([3]; in words, refers to both anti-ulcer tests) was “improved suppressory activity in the antiulcer test, as compared with FTZ used as a control”. For the same compound, the “UD50 (mg/kg) (95% C.L.)” value ([3]; oral, 30 min before hydrochloric acid/ethanol) was 22.8 mg/kg, the Incidence of ulcer ([4]; 50 mg/kg orally) was 8/8 and the “Ulcer coefficient (mm) mean ± S.E.” value ([4]; 50 mg/kg orally) was 19.9 ± 4.6 mm. The Suppression % [4, 9] was 37.6%, the Incidence of ulcer ([4]; 100 mg/kg orally) was 8/8 and the “Ulcer coefficient (mm) mean ± S.E.” value ([4]; 100 mg/kg orally, * p < 0.01) was 9.8 ± 2.3 mm. For the same compound, the Suppression % ([4]; 100 mg/kg orally, vs Vehicle No. 2) was 57.2%, the Incidence of ulcer ([4]; 150 mg/kg orally) was 8/8 and the “Ulcer coefficient (mm) mean ± S.E.” value ([4]; 150 mg/kg orally, ** p < 0.01) was 7.6 ± 1.4 mm. The Suppression % ([4]; 150 mg/kg orally, vs Vehicle No. 3) was 78.1%, the “UD50 (mg/kg) (95% C.L.)” value ([4]; oral, 30 min before water-soaking constraint) was 72.8 mg/kg and the “Nd/No (No. of dead animals / total No.)” value ([5]; 1,250 mg/kg oral) was 0/3. The “Nd/No (No. of dead animals / total No.)” value ([5]; 2,500 mg/kg oral) was 0/3, the “Nd/No (No. of dead animals / total No.)” value ([5]; 5,000 mg/kg oral) was 0/3 and the death of animals ([5]; doses up to 5,000 mg/kg oral, in words) was “did not cause any animal to die”. The “anti-hepatitis, liver function improving and anti-ulcer activity” value [6] was “more markedly potent anti-ulcer activity as well as comparable anti-hepatitis and liver function improving activities”.
